Assay results taken from the NIST ThermoML archive (doi:10.1016/j.jct.2017.03.033).

Test: molar heat capacity at constant pressure
Settings: Flow calorimetry

CC(C)C [2-methylpropane]
Settings | molar heat capacity at constant pressure [J/K/mol]
353.87 K, 10990 kPa, Liquid | 150.71
353.87 K, 11500 kPa, Liquid | 150.42
353.88 K, 2000 kPa, Liquid | 166.17
353.88 K, 3510 kPa, Liquid | 160.94
353.88 K, 7510 kPa, Liquid | 153.15
353.88 K, 12010 kPa, Liquid | 149.9
353.89 K, 5510 kPa, Liquid | 157.05
353.89 K, 6510 kPa, Liquid | 155.42
353.9 K, 1540 kPa, Liquid | 168.38
353.9 K, 4000 kPa, Liquid | 160.01
353.9 K, 7990 kPa, Liquid | 152.75
363.86 K, 2090 kPa, Liquid | 174.19
363.91 K, 2520 kPa, Liquid | 171.93
363.92 K, 5030 kPa, Liquid | 162.8
363.92 K, 6510 kPa, Liquid | 159.43
363.92 K, 8020 kPa, Liquid | 156.81
363.93 K, 3000 kPa, Liquid | 170.01
363.93 K, 7000 kPa, Liquid | 158.5
363.94 K, 5510 kPa, Liquid | 161.75
363.94 K, 8500 kPa, Liquid | 156.12
363.95 K, 11990 kPa, Liquid | 152.05
363.96 K, 4040 kPa, Liquid | 165.71
363.96 K, 6000 kPa, Liquid | 160.88
363.96 K, 7510 kPa, Liquid | 157.92
363.96 K, 9970 kPa, Liquid | 153.91
363.96 K, 10510 kPa, Liquid | 153.09
363.97 K, 3510 kPa, Liquid | 167.22
363.97 K, 8990 kPa, Liquid | 155.13
363.97 K, 11000 kPa, Liquid | 152.75
363.98 K, 4500 kPa, Liquid | 164.66
363.98 K, 9510 kPa, Liquid | 154.2
364 K, 11540 kPa, Liquid | 152.34
373.85 K, 2530 kPa, Liquid | 186.46
373.85 K, 7050 kPa, Liquid | 164.54
373.87 K, 7520 kPa, Liquid | 163.73
373.89 K, 7980 kPa, Liquid | 162.86
373.89 K, 9480 kPa, Liquid | 160.48
373.9 K, 5520 kPa, Liquid | 169.02
373.9 K, 6000 kPa, Liquid | 167.45
373.9 K, 10000 kPa, Liquid | 159.78
373.91 K, 9020 kPa, Liquid | 161.23
373.92 K, 3010 kPa, Liquid | 182.39
373.92 K, 4500 kPa, Liquid | 172.97
373.92 K, 8520 kPa, Liquid | 162.1
373.93 K, 4020 kPa, Liquid | 175.3
373.94 K, 6520 kPa, Liquid | 166.64
373.95 K, 5020 kPa, Liquid | 171.34
373.95 K, 11010 kPa, Liquid | 158.15
373.95 K, 11470 kPa, Liquid | 157.45
373.95 K, 11990 kPa, Liquid | 157.1
373.97 K, 3530 kPa, Liquid | 179.02
373.98 K, 10490 kPa, Liquid | 158.44
383.2 K, 2550 kPa, Liquid | 209.82
383.21 K, 6010 kPa, Liquid | 173.96
383.26 K, 6520 kPa, Liquid | 171.81
383.3 K, 3960 kPa, Liquid | 188.32
383.32 K, 4990 kPa, Liquid | 179.89
383.34 K, 4500 kPa, Liquid | 183.72
383.35 K, 3010 kPa, Liquid | 201.04
383.42 K, 3490 kPa, Liquid | 193.84
383.44 K, 5490 kPa, Liquid | 177.21
383.92 K, 6990 kPa, Liquid | 170.65
383.92 K, 9990 kPa, Liquid | 163.61
383.93 K, 10490 kPa, Liquid | 161.7
383.93 K, 12090 kPa, Liquid | 159.14
383.94 K, 7980 kPa, Liquid | 168.55
383.94 K, 9460 kPa, Liquid | 164.25
383.94 K, 11010 kPa, Liquid | 160.71
383.94 K, 11570 kPa, Liquid | 159.37
383.95 K, 9030 kPa, Liquid | 164.95
383.96 K, 7520 kPa, Liquid | 169.54
383.97 K, 8470 kPa, Liquid | 166.75
393.93 K, 4520 kPa, Liquid | 197.56
393.95 K, 3560 kPa, Liquid | 222.96
393.96 K, 3090 kPa, Liquid | 248.47
393.99 K, 4980 kPa, Liquid | 192.79
393.99 K, 7000 kPa, Liquid | 177.62
393.99 K, 9000 kPa, Liquid | 170.47
394 K, 8010 kPa, Liquid | 174.6
394 K, 9500 kPa, Liquid | 169.6
394.01 K, 7500 kPa, Liquid | 176.28
394.02 K, 6000 kPa, Liquid | 183.49
394.02 K, 12020 kPa, Liquid | 165.3
394.03 K, 8510 kPa, Liquid | 173.38
394.03 K, 11010 kPa, Liquid | 166.75
394.04 K, 4060 kPa, Liquid | 208.37
394.05 K, 6500 kPa, Liquid | 180.59
394.05 K, 9990 kPa, Liquid | 168.03
394.05 K, 11510 kPa, Liquid | 165.53
394.06 K, 5490 kPa, Liquid | 187.33
394.09 K, 10520 kPa, Liquid | 167.28
403.41 K, 4080 kPa, Liquid | 248.65
403.41 K, 4510 kPa, Liquid | 227.2
403.43 K, 5070 kPa, Liquid | 209.76
403.44 K, 5520 kPa, Liquid | 201.92
403.49 K, 9990 kPa, Liquid | 173.15
403.5 K, 8500 kPa, Liquid | 177.97
403.51 K, 6500 kPa, Liquid | 192.5
403.51 K, 8000 kPa, Liquid | 180.88
403.52 K, 6010 kPa, Liquid | 195.93
403.53 K, 6990 kPa, Liquid | 189.01
403.53 K, 8990 kPa, Liquid | 175.94
403.53 K, 10960 kPa, Liquid | 172.8
403.53 K, 12000 kPa, Liquid | 170.65
403.54 K, 10490 kPa, Liquid | 172.91
403.55 K, 9510 kPa, Liquid | 174.54
403.55 K, 11490 kPa, Liquid | 172.16
403.58 K, 7550 kPa, Liquid | 184.77
413.26 K, 4120 kPa, Fluid (supercritical or subcritical phases) | 593.02
413.46 K, 4510 kPa, Fluid (supercritical or subcritical phases) | 315.55
413.47 K, 5490 kPa, Fluid (supercritical or subcritical phases) | 230.16
413.48 K, 6060 kPa, Fluid (supercritical or subcritical phases) | 211.86
413.5 K, 4980 kPa, Fluid (supercritical or subcritical phases) | 256.44
413.51 K, 6500 kPa, Fluid (supercritical or subcritical phases) | 205.29
413.51 K, 7000 kPa, Fluid (supercritical or subcritical phases) | 197.5
413.52 K, 11000 kPa, Fluid (supercritical or subcritical phases) | 171.93
413.53 K, 7980 kPa, Fluid (supercritical or subcritical phases) | 188.9
413.53 K, 8490 kPa, Fluid (supercritical or subcritical phases) | 186.05
413.53 K, 10480 kPa, Fluid (supercritical or subcritical phases) | 174.77
413.54 K, 7520 kPa, Fluid (supercritical or subcritical phases) | 191.28
413.54 K, 10010 kPa, Fluid (supercritical or subcritical phases) | 176.92
413.54 K, 11510 kPa, Fluid (supercritical or subcritical phases) | 170.01
413.54 K, 11940 kPa, Fluid (supercritical or subcritical phases) | 169.43
413.55 K, 8990 kPa, Fluid (supercritical or subcritical phases) | 180.93
413.56 K, 9510 kPa, Fluid (supercritical or subcritical phases) | 178.9
